Data taken from PMC10586439 (ACS Omega, 2023).
Where two headings read alike, the source gives them in different places.

Experiments:
MDA-MB-231 cells [1] = assay: Cell cycle analysis by flow cytometry; format: cell-based, human
[2] = tested on: MDA-MB-231 human breast carcinoma cell line; assay: MTT cytotoxicity assay against MDA-MB-231 breast carcinoma cell line; format: cell-based
[3] = tested on: normal MCF-10A breast cells; assay: MTT cytotoxicity assay on normal MCF-10A breast cells; format: cell-based; conditions: for IC50: Homo sapiens, MCF-10A, read-out: IC50 value (μM) MCF-10A
MDA-MB-231 cells [4] = assay: Annexin V-FITC/PI apoptosis assay by flow cytometry; format: cell-based, human; conditions: MDA-MB-231, 48 h, compound at its IC50
β-tubulin = β-tubulin (Homo sapiens, UniProt P07437+P68363); assay: β-Tubulin polymerization inhibition; format: biochemical; conditions: read-out: β-tubulin polymerization inhibition percentage
[5] = MDA-MB-231, 24 h, read-out: IC50 value (μM) MDA-MB-231
[6] = MDA-MB-231, read-out: IC50 against MDA-MB-231 cells

Chain of β-tubulin (P07437 whole entry): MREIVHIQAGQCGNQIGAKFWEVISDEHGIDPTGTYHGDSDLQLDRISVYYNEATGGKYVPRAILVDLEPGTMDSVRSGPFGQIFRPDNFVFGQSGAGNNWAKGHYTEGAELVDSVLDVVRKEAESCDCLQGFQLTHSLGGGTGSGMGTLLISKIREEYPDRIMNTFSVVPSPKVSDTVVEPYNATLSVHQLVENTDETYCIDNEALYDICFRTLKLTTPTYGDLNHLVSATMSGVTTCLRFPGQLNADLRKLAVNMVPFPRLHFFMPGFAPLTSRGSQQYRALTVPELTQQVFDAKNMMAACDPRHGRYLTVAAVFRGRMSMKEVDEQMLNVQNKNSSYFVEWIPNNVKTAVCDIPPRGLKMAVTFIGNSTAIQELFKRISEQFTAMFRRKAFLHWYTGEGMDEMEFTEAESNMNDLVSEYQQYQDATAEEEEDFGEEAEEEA
Chain of β-tubulin (P68363 whole entry): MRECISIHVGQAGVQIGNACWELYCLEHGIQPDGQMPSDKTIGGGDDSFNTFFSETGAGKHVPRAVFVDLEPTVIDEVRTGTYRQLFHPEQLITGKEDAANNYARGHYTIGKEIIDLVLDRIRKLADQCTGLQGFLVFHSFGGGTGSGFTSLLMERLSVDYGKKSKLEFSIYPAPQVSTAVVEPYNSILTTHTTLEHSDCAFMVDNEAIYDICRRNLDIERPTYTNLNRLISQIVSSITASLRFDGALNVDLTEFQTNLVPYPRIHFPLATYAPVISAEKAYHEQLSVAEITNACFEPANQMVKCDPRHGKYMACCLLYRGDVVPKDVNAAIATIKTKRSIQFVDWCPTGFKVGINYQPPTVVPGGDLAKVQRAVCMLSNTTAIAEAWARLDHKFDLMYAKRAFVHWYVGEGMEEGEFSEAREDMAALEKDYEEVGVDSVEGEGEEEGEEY

SMILES	IC50 [2, 5] [µM]	inhibition at 25 µM (β-tubulin) [%]	further results
COc1cc(C(=O)N/C(=C\c2ccc(Cl)cc2)C(=O)O)cc(OC)c1OC [4b, (Z)-3-(4-Chlorophenyl)-2-(3,4,5-trimethoxybenzamido)acrylic Acid]	3.24 ± 0.13	80.1	percentage of cells in G2/M phase (MDA-MB-231 cells [1]; MDA-MB-231, 48 h, compound at its IC50, untreated control 7.35%): 28.08%; cell accumulation at G2/M stage, times higher than untreated control (MDA-MB-231 cells [1]; MDA-MB-231, compound at its IC50): 3.82 times; IC50 [3]: 23.3 ± 0.32 µM; mean tumor selectivity index ([3]; MCF-10A versus MDA-MB-231): 7.2; late-secondary cellular apoptosis (MDA-MB-231 cells [4]; untreated control 0.24%): 12.62%; early primary apoptosis (MDA-MB-231 cells [4]; untreated control 0.69%): 8.09%
CCOC(=O)/C(=C/c1ccc(Cl)cc1)NC(=O)c1cc(OC)c(OC)c(OC)c1 [5f, (Z)-Ethyl 3-(4-Chlorophenyl)-2-(3,4,5-trimethoxybenzamido)acrylate]	11.6 ± 0.24	–	–
COC(=O)/C(=C/c1ccc(Cl)cc1)NC(=O)c1ccc(OC)c(OC)c1 [5a, (Z)-Methyl 3-(4-Chlorophenyl)-2-(3,4-dimethoxybenzamido)acrylate]	4.84 ± 0.19	57.1	–
CCCCOC(=O)/C(=C/c1ccc(Cl)cc1)NC(=O)c1cc(OC)c(OC)c(OC)c1 [5i, (Z)-Butyl 3-(4-Chlorophenyl)-2-(3,4,5-trimethoxybenzamido)acrylate]	28.1 ± 0.56	–	–
COc1cc(C(=O)N/C(=C\c2ccc(Cl)cc2)C(=O)OC(C)C)cc(OC)c1OC [5h, (Z)-Isopropyl 3-(4-Chlorophenyl)-2-(3,4,5-trimethoxybenzamido)acrylate]	25.2 ± 0.51	–	–
CCOC(=O)/C(=C/c1ccc(Cl)cc1)NC(=O)c1ccc(OC)c(OC)c1 [5b, (Z)-Ethyl 3-(4-Chlorophenyl)-2-(3,4-dimethoxybenzamido)acrylate]	15.8 ± 0.41	–	–
CCCOC(=O)/C(=C/c1ccc(Cl)cc1)NC(=O)c1cc(OC)c(OC)c(OC)c1 [5g, (Z)-Propyl 3-(4-Chlorophenyl)-2-(3,4,5-trimethoxybenzamido)acrylate]	23.2 ± 0.4	–	–
COC(=O)/C(=C/c1ccc(Cl)cc1)NC(=O)c1cc(OC)c(OC)c(OC)c1 [5e, (Z)-Methyl 3-(4-Chlorophenyl)-2-(3,4,5-trimethoxybenzamido)acrylate]	4.03 ± 0.16	77.8	IC50 [2, 6]: 4.06 µM
CCCOC(=O)/C(=C/c1ccc(Cl)cc1)NC(=O)c1ccc(OC)c(OC)c1 [5c, (Z)-Propyl 3-(4-Chlorophenyl)-2-(3,4-dimethoxybenzamido)acrylate]	14.3 ± 0.33	–	–
COc1ccc(/C=C\c2cc(OC)c(OC)c(OC)c2)cc1O [CA-4, combretastatin A-4, reference compound]	1.27	89.8	IC50 [3]: 14.2 ± 0.29 µM
COc1ccc(C(=O)N/C(=C\c2ccc(Cl)cc2)C(=O)O)cc1OC [4a, (Z)-3-(4-Chlorophenyl)-2-(3,4-dimethoxybenzamido)acrylic Acid]	8.24 ± 0.37	–	IC50 [2, 6]: 8.55 to 15.9 µM
CCCCOC(=O)/C(=C/c1ccc(Cl)cc1)NC(=O)c1ccc(OC)c(OC)c1 [5d, (Z)-Butyl 3-(4-Chlorophenyl)-2-(3,4-dimethoxybenzamido)acrylate]	45.9 ± 1.02	–	IC50 [2, 6]: 45.8 µM
